Measured values from PubChem BioAssay (NCI).
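Cultured in 96-well plates, cells were exposed to test compound for 48 hours across five concentrations. TGI marks complete inhibition of growth.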

Columns and labels:
Test in all cases: inhibition of tumour cell growth, NCI panel, 48 h
[1] = system: A498 renal
[2] = system: RPMI-8226 leukemia
[3] = system: A549 NSCLC
[4] = system: UO-31 renal
[5] = system: HOP-62 NSCLC
[6] = system: LOX IMVI melanoma
[7] = system: PC-3 prostate
[8] = system: SF-539 CNS
[9] = system: OVCAR-4 ovarian
[10] = system: K-562 leukemia
[11] = system: NCI-H226 lung
[12] = system: NCI/ADR-RES ovarian

| Structure (SMILES) | TGI [1] [µM] | TGI [2] [µM] | TGI [3] [µM] | TGI [4] [µM] | TGI [5] [µM] | TGI [6] [µM] | TGI [7] [µM] | TGI [8] [µM] | TGI [9] [µM] | TGI [10] [µM] | TGI [11] [µM] | TGI [12] [µM] |
| --- | --- | --- | --- | --- | --- | --- | --- | --- | --- | --- | --- | --- |
| COc1ccccc1NC(=O)C(C#N)=C(SC)SC | > 100 | > 100 | > 100 | > 100 | > 100 | > 100 | > 100 | > 100 | > 100 | > 100 | > 100 | – |
| O=C1/C(=C/c2cccc([N+](=O)[O-])c2)COc2ccccc21 | > 84.4 | – | > 100 | 67.8 | > 30.4 | 3.44 | – | – | 6.28 | > 28.5 | 22.6 | – |
| CC1=NC(=Cc2ccc(Cl)cc2)C(=O)N1n1c(-c2ccccc2)nc2ccccc2c1=O | 63.4 | > 100 | > 100 | > 100 | > 100 | > 100 | > 100 | > 100 | – | > 100 | > 100 | – |
| COc1ccc2c(c1)c(Cc1c(C)n(C)c3ccc(OC)cc13)c(C)n2C | > 100 | > 100 | > 100 | > 100 | > 100 | > 100 | – | > 100 | > 100 | > 100 | > 100 | – |
| C/C(C=O)=N\Nc1cc(C)c2ccccc2n1 | 28.9 | 39 | 43 | 28.1 | 29.2 | 29.4 | 33 | 28.8 | 27.8 | 46.6 | – | 31 |
| Nc1ccc(N=Nc2ccc(/C=C/c3ccc(N=Nc4ccc(N)c5ccc(S(=O)(=O)O)cc45)cc3S(=O)(=O)O)c(S(=O)(=O)O)c2)c2cc(S(=O)(=O)O)ccc12 | > 100 | > 100 | > 100 | > 100 | > 100 | > 100 | – | > 100 | > 100 | > 100 | > 100 | > 100 |
| c1ccc(C2=NN(c3ccccc3)C3(S2)SC(c2ccccc2)(c2ccccc2)c2ccccc23)cc1 (stereo not given) | > 100 | > 100 | > 100 | > 100 | > 100 | > 100 | – | > 100 | > 100 | > 100 | > 100 | – |
| O=C1/C(=C/c2cccc([N+](=O)[O-])c2)CCCc2ccccc21 | – | 49 | 48 | 30 | 29.3 | 16.5 | 23 | 28.6 | 33.4 | 14.6 | 33.2 | 23.8 |
| N#C/C(=C\c1ccc(Cl)cc1)c1nc2ccccc2c(=O)[nH]1 | – | > 100 | > 100 | > 100 | > 100 | > 100 | > 100 | > 100 | > 100 | > 100 | > 100 | > 100 |
| Cc1ccc(S(=O)(=O)N/N=C2\C(=O)C3CC2C(Cl)C3Cl)cc1 (stereo not given) | > 100 | > 100 | > 100 | > 100 | > 100 | > 100 | – | – | > 100 | > 100 | > 100 | – |
| CN(C(=O)C1=CCCCCC1)c1ccccc1I | > 100 | > 100 | > 100 | > 100 | > 100 | > 100 | > 100 | – | 86.9 | > 100 | – | 68.7 |
| COc1c(O)cc(/C=C/c2cc(O)cc3c2[C@@]2(C(=O)O3)c3c(O)cc(O)cc3OC2c2cccc(O)c2)cc1O (stereo not given in full) | > 100 | 52.8 | > 100 | > 100 | > 100 | > 100 | > 100 | > 100 | 91 | 91.9 | – | 77.8 |
| N#CCCc1nc2ccc(Br)cc2c(=O)n1-c1ccc(O)c([N+](=O)[O-])c1 | > 100 | 40 | > 100 | 78.9 | > 100 | 35.5 | – | 34.4 | 38.8 | 61.9 | 43.3 | – |
| NC(=S)N/N=C/c1cc(CN2CCOCC2)c(N)cn1 | > 100 | > 100 | – | > 100 | > 100 | > 100 | > 100 | 84.2 | – | > 100 | 45.8 | 94.3 |
| O=S(=O)(CC1=NC2C=CC=CC2N=C1)NCc1ccccc1 (stereo not given) | > 100 | > 100 | > 100 | – | > 100 | > 100 | – | > 100 | > 100 | > 100 | > 100 | – |
| CC1C2CC(C(C3C(=O)C4CC3C(C)(C)C4C)C2=O)C1(C)C (stereo not given) | > 100 | – | > 100 | > 100 | > 100 | – | > 100 | > 100 | > 100 | > 100 | > 100 | – |
| COc1ccc2oc(=N)c(C(N)=S)cc2c1 | – | 82.3 | > 100 | 48.6 | > 100 | 33 | 93.7 | 51.7 | > 100 | > 100 | 44.3 | 37.1 |
| CC1CCCc2c(-c3ccc(Cl)cc3)nc(N)c(C#N)c21 (stereo not given) | 89 | 37.9 | – | 61.7 | 63 | 68 | 82 | 92.3 | – | 93.5 | 66.2 | 71.3 |
| Oc1cn(-c2ccc(Cl)cc2)nc1-c1nnc(Nc2ccccc2)o1 | 29.5 | – | 43.3 | 46.1 | 31.6 | – | – | 30.8 | > 100 | – | 31.4 | 30.1 |
| C/C(C=O)=C1\C(O)C[C@]1(C)C1CC(C)(C)CC1O (stereo not given in full) | > 100 | > 100 | > 100 | > 100 | > 100 | > 100 | – | > 100 | 93.9 | > 100 | > 100 | – |
| CSC1=N/C(=C\c2cccs2)C(=O)N1CN1CCCCC1 | > 100 | 68.8 | > 100 | > 100 | > 100 | 75.6 | > 100 | – | – | > 100 | > 100 | > 100 |
